Test results from ChEMBL document CHEMBL3244333, “2-Acetylpyridine thiosemicarbazones. 2. N4,N4-Disubstituted derivatives as potential antimalarial agents” (J Med Chem, 1979).
Active and inactive are the calls of the source. No cut-off for these calls is given here.

Columns and labels:
Plasmodium berghei [1] = assay: Antimalarial activity against Plasmodium berghei KBG 173 infected in mouse assessed as cured animal from parasite infection at 160 mg/kg; assay type: functional, organism-based; design: dose 160 mg/kg
Plasmodium berghei [2] = assay: Antimalarial activity against Plasmodium berghei KBG 173 infected in mouse assessed as increase of mean survival time at 40 mg/kg; assay type: functional
Mus musculus [3] = assay: Toxicity in Plasmodium berghei KBG 173 infected mouse at 640 mg/kg; assay type: organism-based; design: dose 640 mg/kg; conditions: in vivo
Mus musculus [4] = assay: Toxicity in Plasmodium berghei KBG 173 infected mouse at 80 mg/kg; assay type: organism-based; design: dose 80 mg/kg; conditions: in vivo
Plasmodium berghei [5] = assay: Antimalarial activity against Plasmodium berghei KBG 173 infected in mouse assessed as cured animal from parasite infection at 80 mg/kg; assay type: functional, organism-based; design: dose 80 mg/kg
Mus musculus [6] = assay: Toxicity in Plasmodium berghei KBG 173 infected mouse at 320 mg/kg; assay type: organism-based; design: dose 320 mg/kg; conditions: in vivo
Plasmodium berghei [7] = assay: Antimalarial activity against Plasmodium berghei KBG 173 infected in mouse assessed as cured animal from parasite infection at 320 mg/kg; assay type: functional, organism-based; design: dose 320 mg/kg
Mus musculus [8] = assay: Toxicity in Plasmodium berghei KBG 173 infected mouse at 160 mg/kg; assay type: organism-based; design: dose 160 mg/kg; conditions: in vivo
Plasmodium berghei [9] = assay: Antimalarial activity against Plasmodium berghei KBG 173 infected in mouse assessed as cured animal from parasite infection at 640 mg/kg; assay type: functional, organism-based; design: dose 640 mg/kg
Plasmodium berghei [10] = assay: Antimalarial activity against Plasmodium berghei KBG 173 infected in mouse assessed as increase of mean survival time at 80 mg/kg; assay type: functional
Plasmodium berghei [11] = assay: Antimalarial activity against Plasmodium berghei KBG 173 infected in mouse assessed as increase of mean survival time at 160 mg/kg; assay type: functional
Plasmodium berghei [12] = assay: Antimalarial activity against Plasmodium berghei KBG 173 infected in mouse assessed as increase of mean survival time at 640 mg/kg; assay type: functional
Plasmodium berghei [13] = assay: Antimalarial activity against Plasmodium berghei KBG 173 infected in mouse assessed as cured animal from parasite infection at 40 mg/kg; assay type: functional, organism-based; design: dose 40 mg/kg
Plasmodium berghei [14] = assay: Antimalarial activity against Plasmodium berghei KBG 173 infected in mouse assessed as increase of mean survival time at 320 mg/kg; assay type: functional
Mus musculus [15] = assay: Toxicity in Plasmodium berghei KBG 173 infected mouse at 40 mg/kg; assay type: organism-based; design: dose 40 mg/kg; conditions: in vivo

SMILES	Activity (Plasmodium berghei [1])	Survival (Plasmodium berghei [2])	Activity (Mus musculus [3])	Activity (Mus musculus [4])	Activity (Plasmodium berghei [5])	Activity (Mus musculus [6])	Activity (Plasmodium berghei [7])	Activity (Mus musculus [8])	Activity (Plasmodium berghei [9])	Survival (Plasmodium berghei [10])	Survival (Plasmodium berghei [11])	Survival (Plasmodium berghei [12])	Activity (Plasmodium berghei [13])	Survival (Plasmodium berghei [14])	Activity (Mus musculus [15])
C/C(=N/NC(=S)N(C)Cc1ccccc1)c1ccccn1	Active	4 days	Toxic	Toxic	Active	Toxic	Active	Toxic	Active	–	–	–	–	–	–
C/C(=N/NC(=S)N1C(C)CCCC1C)c1ccccn1 (centres undefined)	–	0.5 days	Toxic	–	–	–	Active	–	Active	1.6 days	6.3 days	–	–	–	–
CCN(CC)C(=S)N/N=C(/C)c1ccccn1	Active	7.2 days	Toxic	Toxic	Active	–	–	Toxic	Active	–	–	0 days	Active	–	–
C/C(=N/NC(=S)N(C)C1CCCC1)c1ccccn1	Active	1.5 days	Toxic	–	Active	Toxic	Active	–	Active	–	–	0 days	–	6 days	–
C/C(=N/NC(=S)N1C(C)CCC1C)c1ccccn1 (centres undefined)	Active	4.7 days	Toxic	–	Active	Toxic	Active	Toxic	Active	–	–	0 days	–	0 days	–
C/C(=N/NC(=S)N1CC(C)CC(C)C1)c1ccccn1 (centres undefined)	Active	5.6 days	Toxic	–	Active	Toxic	Active	–	–	–	–	-0.4 days	–	0 days	–
C/C(=N/NC(=S)N1CCN(c2ccccc2)CC1)c1ccccn1	Active	7 days	Toxic	–	Active	Toxic	–	–	Active	11.7 days	–	-0.4 days	Active	-0.1 days	–
C/C(=N/NC(=S)N1CCC(Cc2ccccc2)CC1)c1ccccn1	Active	0.4 days	–	–	–	–	Active	–	Active	2.8 days	–	–	–	–	–
C/C(=N/NC(=S)N1CC2CCC(CC2)C1)c1ccccn1	Active	–	Toxic	–	Active	–	–	–	–	–	–	0.4 days	Active	0.2 days	–
C/C(=N/NC(=S)N1CCN(c2cccc(C(F)(F)F)c2)CC1)c1ccccn1	Active	0.1 days	Toxic	–	–	Toxic	Active	–	Active	2.4 days	–	–	–	–	–
C/C(=N/NC(=S)N(C)CCc1ccccn1)c1ccccn1	Active	1.7 days	Toxic	–	–	Toxic	Active	Toxic	–	3.3 days	0 days	0 days	–	6.7 days	Toxic
C/C(=N/NC(=S)N1CC=C(c2ccccc2)CC1)c1ccccn1	Active	0.8 days	–	–	–	–	Active	–	Active	2 days	–	–	–	–	–
CCCCN(C)C(=S)N/N=C(/C)c1ccccn1	Active	5.9 days	Toxic	–	Active	Toxic	Active	Toxic	Active	8.1 days	6.9 days	0 days	–	0 days	–
C/C(=N/NC(=S)N1CCN(c2ccccn2)CC1)c1ccccn1	–	–	Toxic	–	–	Toxic	–	–	–	–	–	0 days	–	0.7 days	–
C/C(=N/NC(=S)N(C)C1CCCCCCC1)c1ccccn1	Active	3.2 days	Toxic	–	Active	–	Active	–	Active	9.6 days	–	12.1 days	–	–	–
C/C(=N/NC(=S)N1CCN(Cc2ccccc2)CC1)c1ccccn1	–	1.6 days	–	–	–	–	Active	–	Active	4.4 days	5.6 days	–	–	–	–
